Results on 4 compounds are retold here after patent US12173283B2, “Cell model for in vitro evaluation of compound-induced skin sensitization and a constructing method therefor” (South China University Of Technology, priority 2017, dated 2024).

One data set has as its system HMOX1 gene target site. Description: T7EI digestion identification of target site cleavage by sgRNA co-transfected with hCas9 into 293T cells. Format: cell-based. As to conditions: co-transfected with hCas9 plasmid, 72 hours, FIG. 1. Here is the method:
sgRNA-1, sgRNA-10, sgRNA-13 plasmid and hCas9 plasmid were co-transfected into 293T cells respectively. After 72 hours, the genome was extracted and expanded with the primers in Table 2 on the target site, and the PCR product was identified by T7EI digestion.
The sgRNA-1, sgRNA-10, and sgRNA-13 plasmids were co-transfected into the 293T cells with a H-Cas9 plasmid (using liposome transfection), and the transfection steps were as follows: • (1) The prior medium was discarded, and 2 mL of fresh medium for incubation was added; • (2) 0.5 μg of the sgRNA recombinant plasmid and 0.5 μg of the hCas9 plasmid were dissolved in 100 μL of DMEM (H), 3 μL of a liposome transfection reagent was diluted to 100 μL, and the diluted liposome transfection reagent was added to the diluted plasmid solution. The mixture was gently blew evenly, formulated into a transfection complex, and reacted at room temperature for 15 min; • (3) The transfection complex was dropped into 6 wells, and reacted at 37° C. for 5 h. Then the reaction solution was discarded, and fresh medium was added for cultivation. Genome Extraction Process
PCR amplification of sgRNA-1, sgRNA-10, and sgRNA-13 was carried out using the extracted genome after transfection as a template; PCR amplification was performed using the wild type (WT) as a template and primers with SEQ ID NO: 6-7 as shown in Table 2. […]

Data set [1] concerns HMOX1 gene (luciferase reporter). Description: Luciferase expression assay in HMOX1-luciferase knock-in HaCaT monoclone No. 38 (detection of compound sensitization). The data set is classed as cell-based. To be noted: human, HMOX1-luciferase knock-in HaCaT cells, clone No. 38, detection range of concentration 4 μM˜1000 μM, 48 h incubation, compared with negative control group, read-out: expression of luciferase (fold induction), highest reached. The protocol: 4. Analysis of sensitization of compounds after gene knock-in Sensitization of compounds was detected using clone No. 38.
Pre-cultured cells were centrifuged followed by removal of the supernatant, and were resuspended in fresh complete medium. The cell concentration was calculated with a cell counter after dilution for 10 times, and finally was adjusted to 50,000 cells/well. 200 μL of the cell solution was added to each well of a white opaque 96-well plate to ensure that the number of cells per well was substantially the same. The cell was incubated for 24 h at 37° C. in a 5% CO2 incubator. After 24 h, the medium was removed, and a working solution was prepared with 1% FBS medium. […] After 48 h, luciferase expression was measured and cell viability was detected using MTT.
• (1) 48 hours after treatment, the medium containing the reagent was discarded, and the plate was washed twice with PBS; • (2) 100 μL of PBS was added to each well, and then an equal volume of the luciferase substrate was added; • (3) The plate was shaken at 200 rpm for 2 min to fully lyse the cells; • (4) A Tecan Infinite® 200 Pro multi-function microplate reader selecting luminescence, integration 0.5s was used and the reading was recorded. […]

Consider “sgRNA-13: specific sgRNA near the stop codon of HMOX1 gene, sequence GCTTTATGCCATGTGAATGCAGG, Exon 5 (expressed or natural sequence; the letters are possibly those of the target site)”, for which, in the data set on HMOX1 gene target site, the “cleavage of the target site (T7EI digestion)” value was “can effectively cleave the target site”. In the case of `OCC=Cc1ccccc1` [cinnamyl alcohol], in data set [1], the fold induction at 48 h is at most 21. On to “sgRNA-1: specific sgRNA near the stop codon of HMOX1 gene, sequence TTAACAGGTGGGCGTGCATCAGG, Exon 5 (expressed or natural sequence)”, for which the “cleavage of the target site (T7EI digestion)” value in the data set on HMOX1 gene target site is “can effectively cleave the target site”. Consider `Sc1nc2ccccc2s1` [2-mercaptobenzothiazole], for which the fold induction at 48 h in data set [1] is at most 30.
